Data taken from patent US20080064692A1.
Where two headings read alike, the source gives them in different places.

Tests used:
Plasmopara viticola = test: Activity against Peronospora of grapevines caused by Plasmopara viticola; conditions: vines cultivar Riesling, protective spray
Experimental: (§1) 1% by weight of the emulsifier Uniperol® EL (wetting agent having emulsifying and dispersant action based on ethoxylated alkylphenols) was added to this solution, and the mixture was diluted with water to the desired concentration.
(§2) Evaluation is carried out by determining the infected leaf areas in percent. These percentages were converted into efficacies.
(§3) The efficacy (E) is calculated as follows using Abbot's formula:
(§4) α corresponds to the fungicidal infection of the treated plants in % and β corresponds to the fungicidal infection of the untreated (control) plants in %
(§5) An efficacy of 0 means that the infection level of the treated plants corresponds to that of the untreated control plants; an efficacy of 100 means that the treated plants are not infected.
The next day, the undersides of the leaves were inoculated with an aqueous zoospore suspension of Plasmopara viticola. The grapevines were then initially placed in a water-vapor-saturated chamber at 24° C. for 48 hours and then in a greenhouse at 20-30° C. for 5 days. After this period of time, the plants were again placed in a humid chamber for 16 hours to promote sporangiophore eruption. The extent of the development of the disease on the undersides of the leaves was then determined visually.

Corticium sasakii = conditions: rice cultivar Tai-Nong 67, protective spray, evaluated after 11 days
Experimental: as §1, §2, §3, §4, §5
The next day, oat grains infected with Corticium sasakii were placed into the pots (in each case 5 grains per pot). The plants were then placed in a chamber at 26° C. and maximum atmospheric humidity.

SMILES | Efficacy in % of the untreated control (Plasmopara viticola; 4 ppm in the spray liquor) | Efficacy in % of the untreated control (Plasmopara viticola; 16 ppm in the spray liquor) | Efficacy in % of the untreated control (Corticium sasakii; 1 ppm in the spray liquor) | Efficacy in % of the untreated control (Corticium sasakii; 16 ppm in the spray liquor) | Efficacy in % of the untreated control (Corticium sasakii; 4 ppm in the spray liquor)
CO/N=C(/C1=NOCCO1)c1ccccc1Oc1ncnc(Oc2ccccc2Cl)c1F [II (fluoxastrobin), {2-[6-(2-chlorophenoxy)-5-fluoropyrimidin-4-yloxy]phenyl}-(5,6-dihydro-[1,4,2]dioxazin-3-yl)methanon O-methyl oxime] | 21% | 55% | 0% | 18% | 
CC1CCN(c2c(-c3c(F)cc(F)cc3F)c(Cl)nc3ncnn23)CC1 [I, 5-chloro-7-(4-methylpiperidin-1-yl)-6-(2,4,6-trifluorophenyl)-[1,2,4]triazolo[1,5-a]pyrimidine] | 21% | 44% |  |  | 30%
